Data reported in PMC9393629, “Acetogenic production of 3-Hydroxybutyrate using a native 3-Hydroxybutyryl-CoA Dehydrogenase” (Frontiers in Microbiology, 2022).

Assays:
C. kluyveri Hbd1 = biological target: T1, C. kluyveri Hbd1 (Clostridium kluyveri, UniProt A5N5D1); assay: NAD(P)H oxidation at […] nm, E. coli cell-free extract; type: biochemical; settings: 75 uM NADPH, 125 uM acetoacetyl-CoA; 100 mM potassium phosphate pH 6.5, 25 mM potassium citrate
T1 construct: full-length gene expressed in E. coli, cell-free extract (bead-beating), not purified
T1 sequence (A5N5D1 1-282): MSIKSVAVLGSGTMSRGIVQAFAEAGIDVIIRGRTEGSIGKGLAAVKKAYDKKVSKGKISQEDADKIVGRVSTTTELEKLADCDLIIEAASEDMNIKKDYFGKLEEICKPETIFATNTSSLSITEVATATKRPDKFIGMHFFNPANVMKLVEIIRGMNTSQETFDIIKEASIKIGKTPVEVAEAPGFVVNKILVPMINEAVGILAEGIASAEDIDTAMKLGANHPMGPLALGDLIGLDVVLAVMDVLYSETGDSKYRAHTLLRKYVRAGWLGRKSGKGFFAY

C. ljungdahlii Hbd2 = biological target: T2, C. ljungdahlii Hbd2 (Clostridium ljungdahlii, UniProt D8GTU3); assay: as above; type: biochemical; settings: 75 uM NADH, 125 uM acetoacetyl-CoA; 100 mM potassium phosphate pH 6.5, 25 mM potassium citrate; vector-extract activity subtracted
T2 construct: gene mmgB_1; full-length gene expressed in E. coli, cell-free extract (bead-beating), not purified; EC 1.1.1.57 printed
T2 sequence (D8GTU3 1-313): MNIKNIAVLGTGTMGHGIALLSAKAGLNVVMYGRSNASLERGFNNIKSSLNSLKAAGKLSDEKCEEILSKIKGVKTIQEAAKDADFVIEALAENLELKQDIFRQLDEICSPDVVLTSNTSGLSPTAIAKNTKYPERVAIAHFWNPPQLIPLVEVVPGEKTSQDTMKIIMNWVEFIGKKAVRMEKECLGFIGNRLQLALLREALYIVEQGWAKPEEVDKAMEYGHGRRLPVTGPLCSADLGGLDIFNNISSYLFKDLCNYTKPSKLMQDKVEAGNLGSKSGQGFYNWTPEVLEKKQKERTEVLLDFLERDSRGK

Compound	NAD(P)H oxidation at 340 nm, E. coli cell-free extract (C. kluyveri Hbd1)	NAD(P)H oxidation at 340 nm, E. coli cell-free extract (C. ljungdahlii Hbd2)
NC(=O)C1=CN([C@@H]2O[C@H](COP(=O)(O)OP(=O)(O)OC[C@H]3O[C@@H](n4cnc5c(N)ncnc54)[C@H](OP(=O)(O)O)[C@@H]3O)[C@@H](O)[C@H]2O)C=CC1 [NADPH]	C. kluyveri hbd1 E. coli extracts were used as an NADPH-specific control	–
CC(=O)CC(=O)SCCNC(=O)CCNC(=O)[C@H](O)C(C)(C)COP(=O)(O)OP(=O)(O)OC[C@H]1O[C@@H](n2cnc3c(N)ncnc32)[C@H](O)[C@@H]1OP(=O)(O)O [acetoacetyl-CoA]	Both hbd1 and hbd2 E. coli cell free extracts showed low activity without acetoacetyl-CoA	we confirmed NADH specificity and acetoacetyl-CoA-dependence
NC(=O)C1=CN([C@@H]2O[C@H](COP(=O)(O)OP(=O)(O)OC[C@H]3O[C@@H](n4cnc5c(N)ncnc54)[C@H](O)[C@@H]3O)[C@@H](O)[C@H]2O)C=CC1 [NADH]	–	we confirmed NADH specificity and acetoacetyl-CoA-dependence
